The text below walks through data of patent US20260028365A1 (BIOGEN MA INC., priority 2022, published 2026).

In assay [1] the target is JAK1 (Homo sapiens (Human), UniProt P23458). Nature of the assay: pSTAT3 Cell Assay (MSD, TF1 cells). Format: cell-based. Conditions: MSD. The essentials: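 Serum-starved TF1 cells were pretreated with compound for 1 hour (10-point, four-fold dilutions from 10 μM), then stimulated with IL-6 for 15 minutes. Lysates were assayed for pSTAT3 by MSD with anti-STAT3 antibodies; IC50 came from a 4-parameter logistic fit of normalized percent activity.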

The target of assay [2] is JH2 domain of human Tyk2 (Homo sapiens (Human), UniProt P29597). Nature of the assay: JH2 Biochemical Assay (TR-FRET probe displacement). Format: binding. In general terms: In TR-FRET formats the signal depends on donor and acceptor labels being close together.
Assay [3] has as its target Tyk2 (Homo sapiens (Human), UniProt P29597). The assay is described as follows: pSTAT4 Cell Assay (MSD, NK92 cells). Format: cell-based. Conditions: MSD.
Assay [4] concerns the target JAK2 (Homo sapiens (Human), UniProt O60674). Nature of the assay: pSTAT5 Cell Assay (MSD, TF1 cells). Format: cell-based. The settings on record: MSD. The essentials:
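Serum-starved TF1 cells were pretreated with compound for 1 h (10-point four-fold series from 10 μM), then stimulated with 30 ng/mL IL-3 for 15 min. pSTAT5 in lysates was measured by MSD immunoassay. IC50 came from a 4-parameter logistic fit.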

Where [5] appears, read: TR-FRET probe displacement, JH2 domain of human Tyk2.
Where [6] appears, read: JH2 domain of human Tyk2, TR-FRET probe displacement.

Chain of JAK1 (P23458 whole entry): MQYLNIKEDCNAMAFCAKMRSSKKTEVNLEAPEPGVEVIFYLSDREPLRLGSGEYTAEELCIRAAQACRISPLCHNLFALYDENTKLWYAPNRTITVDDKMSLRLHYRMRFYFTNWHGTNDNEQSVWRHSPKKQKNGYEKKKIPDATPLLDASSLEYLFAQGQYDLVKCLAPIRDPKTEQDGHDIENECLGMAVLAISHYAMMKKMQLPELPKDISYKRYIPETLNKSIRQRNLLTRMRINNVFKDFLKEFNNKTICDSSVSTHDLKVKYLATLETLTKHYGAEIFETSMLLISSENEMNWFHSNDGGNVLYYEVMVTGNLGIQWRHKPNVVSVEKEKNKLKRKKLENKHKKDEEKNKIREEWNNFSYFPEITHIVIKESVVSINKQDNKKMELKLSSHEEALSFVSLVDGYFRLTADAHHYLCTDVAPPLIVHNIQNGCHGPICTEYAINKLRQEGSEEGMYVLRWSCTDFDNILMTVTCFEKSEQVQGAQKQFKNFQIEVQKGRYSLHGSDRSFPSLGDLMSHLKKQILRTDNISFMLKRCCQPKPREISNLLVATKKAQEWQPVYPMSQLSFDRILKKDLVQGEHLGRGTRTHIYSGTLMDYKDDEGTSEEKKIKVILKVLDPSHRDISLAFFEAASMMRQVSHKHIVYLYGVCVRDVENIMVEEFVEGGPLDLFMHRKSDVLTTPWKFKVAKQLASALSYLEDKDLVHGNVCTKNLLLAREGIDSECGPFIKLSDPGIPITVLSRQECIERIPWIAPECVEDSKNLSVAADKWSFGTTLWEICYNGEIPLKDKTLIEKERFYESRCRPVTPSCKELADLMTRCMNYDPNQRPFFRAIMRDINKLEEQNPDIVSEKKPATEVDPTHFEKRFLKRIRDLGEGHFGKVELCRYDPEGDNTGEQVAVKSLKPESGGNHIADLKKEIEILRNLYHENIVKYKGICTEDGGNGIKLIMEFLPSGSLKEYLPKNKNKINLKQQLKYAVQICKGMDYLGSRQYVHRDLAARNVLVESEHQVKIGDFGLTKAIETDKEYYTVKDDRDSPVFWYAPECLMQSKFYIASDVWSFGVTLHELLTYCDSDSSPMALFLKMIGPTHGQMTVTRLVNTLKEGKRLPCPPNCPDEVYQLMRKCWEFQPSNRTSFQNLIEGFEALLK
Chain of JH2 domain of human Tyk2 (P29597 575-876): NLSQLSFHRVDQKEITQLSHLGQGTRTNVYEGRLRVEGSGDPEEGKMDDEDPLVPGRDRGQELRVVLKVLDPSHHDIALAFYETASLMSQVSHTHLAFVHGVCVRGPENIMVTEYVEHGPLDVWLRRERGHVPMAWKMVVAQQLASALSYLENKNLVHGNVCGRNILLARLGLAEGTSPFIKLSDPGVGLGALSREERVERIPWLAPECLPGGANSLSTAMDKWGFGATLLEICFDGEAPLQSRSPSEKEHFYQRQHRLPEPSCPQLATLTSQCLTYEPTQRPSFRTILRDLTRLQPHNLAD
Chain of JAK2 (O60674 whole entry): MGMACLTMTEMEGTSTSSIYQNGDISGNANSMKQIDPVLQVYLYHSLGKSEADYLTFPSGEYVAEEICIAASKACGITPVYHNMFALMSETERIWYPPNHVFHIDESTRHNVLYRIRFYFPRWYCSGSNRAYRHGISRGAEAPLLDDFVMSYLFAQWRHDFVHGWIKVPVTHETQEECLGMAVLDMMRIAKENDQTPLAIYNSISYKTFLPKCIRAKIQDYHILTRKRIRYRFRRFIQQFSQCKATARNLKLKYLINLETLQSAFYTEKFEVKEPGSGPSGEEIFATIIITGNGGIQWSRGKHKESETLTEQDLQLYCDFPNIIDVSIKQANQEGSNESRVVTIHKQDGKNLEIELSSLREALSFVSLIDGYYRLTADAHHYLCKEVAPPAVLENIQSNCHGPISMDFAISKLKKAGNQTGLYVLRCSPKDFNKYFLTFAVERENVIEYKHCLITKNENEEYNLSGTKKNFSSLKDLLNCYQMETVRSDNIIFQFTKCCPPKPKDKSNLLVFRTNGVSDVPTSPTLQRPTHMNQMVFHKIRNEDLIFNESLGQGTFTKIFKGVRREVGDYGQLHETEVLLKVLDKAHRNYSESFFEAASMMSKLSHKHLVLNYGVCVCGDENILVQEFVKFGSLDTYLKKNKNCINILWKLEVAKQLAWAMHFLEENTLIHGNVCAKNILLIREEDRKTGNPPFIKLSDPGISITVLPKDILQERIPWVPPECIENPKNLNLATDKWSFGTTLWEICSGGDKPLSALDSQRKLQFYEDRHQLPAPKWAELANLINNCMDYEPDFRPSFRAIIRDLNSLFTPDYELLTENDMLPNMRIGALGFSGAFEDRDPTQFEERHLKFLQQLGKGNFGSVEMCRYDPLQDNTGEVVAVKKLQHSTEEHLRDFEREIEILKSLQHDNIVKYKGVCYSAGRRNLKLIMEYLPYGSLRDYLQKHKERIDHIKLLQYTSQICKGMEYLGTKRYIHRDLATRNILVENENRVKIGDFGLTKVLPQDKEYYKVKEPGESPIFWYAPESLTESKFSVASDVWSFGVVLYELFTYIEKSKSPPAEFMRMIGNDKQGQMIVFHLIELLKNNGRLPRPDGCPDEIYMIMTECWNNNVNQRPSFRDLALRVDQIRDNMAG
Chain of Tyk2 (P29597 whole entry): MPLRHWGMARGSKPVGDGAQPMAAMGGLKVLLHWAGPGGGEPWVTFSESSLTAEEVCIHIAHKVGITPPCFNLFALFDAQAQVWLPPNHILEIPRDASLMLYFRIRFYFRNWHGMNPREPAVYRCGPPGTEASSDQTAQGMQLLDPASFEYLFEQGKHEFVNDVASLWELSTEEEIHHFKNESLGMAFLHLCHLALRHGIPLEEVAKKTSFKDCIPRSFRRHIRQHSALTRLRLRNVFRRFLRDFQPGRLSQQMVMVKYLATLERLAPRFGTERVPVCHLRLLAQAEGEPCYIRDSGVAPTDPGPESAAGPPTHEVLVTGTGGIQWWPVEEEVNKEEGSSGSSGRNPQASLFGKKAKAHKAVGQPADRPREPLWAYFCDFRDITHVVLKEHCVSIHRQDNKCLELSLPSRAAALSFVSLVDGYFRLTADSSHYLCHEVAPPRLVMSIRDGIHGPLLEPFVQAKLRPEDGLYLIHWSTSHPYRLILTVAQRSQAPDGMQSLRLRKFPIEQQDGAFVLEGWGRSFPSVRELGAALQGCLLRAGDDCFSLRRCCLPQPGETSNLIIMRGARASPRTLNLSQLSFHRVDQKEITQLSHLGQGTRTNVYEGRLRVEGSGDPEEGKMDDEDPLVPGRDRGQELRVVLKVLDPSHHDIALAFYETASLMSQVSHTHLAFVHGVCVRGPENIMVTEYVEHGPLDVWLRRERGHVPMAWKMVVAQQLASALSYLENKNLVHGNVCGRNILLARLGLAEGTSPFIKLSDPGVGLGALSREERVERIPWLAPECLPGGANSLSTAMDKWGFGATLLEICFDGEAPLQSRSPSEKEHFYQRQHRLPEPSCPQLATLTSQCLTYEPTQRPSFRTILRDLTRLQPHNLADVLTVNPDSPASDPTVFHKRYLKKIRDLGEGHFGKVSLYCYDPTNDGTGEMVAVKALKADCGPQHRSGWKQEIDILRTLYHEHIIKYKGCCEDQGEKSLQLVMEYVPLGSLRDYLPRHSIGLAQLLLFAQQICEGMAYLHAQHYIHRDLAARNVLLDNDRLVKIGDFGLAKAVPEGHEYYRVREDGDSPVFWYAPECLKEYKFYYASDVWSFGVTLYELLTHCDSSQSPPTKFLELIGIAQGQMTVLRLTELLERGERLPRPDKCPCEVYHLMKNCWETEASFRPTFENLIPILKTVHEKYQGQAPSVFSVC

A word on the IC50: it is the midpoint of a concentration-inhibition curve. On to `COCCn1ncc(-c2cnc(NC(C)=O)cc2Nc2cc(C)nc(C(C)(F)F)n2)n1` [Example 260, N-(4-((2-(1,1-difluoroethyl)-6-methylpyrimidin-4-yl)amino)-5-(2-(2-methoxyethyl)-2H-1,2,3-triazol-4-yl)pyridin-2-yl)acetamide], for which the IC50 in assay [1] (IL-6 stimulation) is at least 1000 nM; in assay [2] (setting [5]), at most 10 nM; in assay [3], at most 10 nM; in assay [4] (IL-3 stimulation) it was at least 1000 nM.
As to `CCc1cc(Nc2cc(NC(C)=O)ncc2-c2ccc(CN3CCOCC3)cn2)nc(C(C)(F)F)n1` [Example 268, N-(4′-((2-(1,1-difluoroethyl)-6-ethylpyrimidin-4-yl)amino)-5-(morpholinomethyl)-[2,3′-bipyridin]-6′-yl)acetamide], the IC50 in assay [1] (IL-6 stimulation) was at least 1000 nM; in assay [2] (setting [5]), at most 10 nM; in assay [3] it was at most 10 nM; in assay [4] (IL-3 stimulation), at least 1000 nM.
As to `CC(=O)Nc1cc(Nc2cc(C)nc(C(C)(F)F)n2)c(-c2ccncn2)cn1` [Example 270, N-(4-((2-(1,1-difluoroethyl)-6-methylpyrimidin-4-yl)amino)-5-(pyrimidin-4-yl)pyridin-2-yl)acetamide], the half-maximal inhibitory concentration (IC50) was at least 1000 nM in assay [1] (IL-6 stimulation), at most 10 nM in assay [2] (setting [5]), at most 10 nM in assay [3] and at least 1000 nM in assay [4] (IL-3 stimulation).
Consider `CC(=O)Nc1cc(Nc2ccnc(C(C)(F)F)n2)c(-c2ccc(N(C)C)cn2)cn1` [Example 276, N-(4′-((2-(1,1-difluoroethyl)pyrimidin-4-yl)amino)-5-(dimethylamino)-[2,3′-bipyridin]-6′-yl)acetamide], for which the IC50 in assay [1] (IL-6 stimulation) was at least 1000 nM; in assay [2] (setting [5]) it was at most 10 nM; in assay [3], at most 10 nM; in assay [4] (IL-3 stimulation), at least 1000 nM.
With `CNC(=O)Nc1cc(Nc2cc(C)nc(C(C)(F)F)n2)c(-c2ccn(C)n2)cn1` [Example 289, 1-(4-((2-(1,1-difluoroethyl)-6-methylpyrimidin-4-yl)amino)-5-(1-methyl-1H-pyrazol-3-yl)pyridin-2-yl)-3-methylurea], the 50% inhibitory concentration (IC50) is at least 1000 nM in assay [1] (IL-6 stimulation), at most 10 nM in assay [2] (setting [5]), at most 10 nM in assay [3] and at least 1000 nM in assay [4] (IL-3 stimulation).
Consider `COCCOc1cnc(NC(C)=O)cc1Nc1cc(OC2CC2)nc(C(C)(F)F)n1` [Example 298, N-(4-((6-cyclopropoxy-2-(1,1-difluoroethyl)pyrimidin-4-yl)amino)-5-(2-methoxyethoxy)pyridin-2-yl)acetamide], for which the half-maximal inhibitory concentration (IC50) in assay [1] (IL-6 stimulation) was at least 1000 nM; in assay [2] (setting [5]) it was at most 10 nM; in assay [3], at most 10 nM; in assay [4] (IL-3 stimulation), at least 1000 nM.
Turning to `COCCOc1cnc(NC(C)=O)cc1Nc1cc(C(C)C)nc(C(C)(F)F)n1` [Example 300, N-(4-((2-(1,1-difluoroethyl)-6-isopropylpyrimidin-4-yl)amino)-5-(2-methoxyethoxy)pyridin-2-yl)acetamide], the IC50 is at least 1000 nM in assay [1] (IL-6 stimulation), at most 10 nM in assay [2] (setting [5]), at most 10 nM in assay [3] and at least 1000 nM in assay [4] (IL-3 stimulation).
As to `CCOc1cnc(NC(C)=O)cc1Nc1cc(-c2cnn(C)c2)nc(C(C)(F)F)n1` [Example 302, N-(4-((2-(1,1-difluoroethyl)-6-(1-methyl-1H-pyrazol-4-yl)pyrimidin-4-yl)amino)-5-ethoxypyridin-2-yl)acetamide], the IC50 in assay [1] (IL-6 stimulation) is at least 1000 nM; in assay [2] (setting [5]), at most 10 nM; in assay [3] it was 10 to 100 nM; in assay [4] (IL-3 stimulation), at least 1000 nM.
In the case of `CCOc1cnc(NC(C)=O)cc1Nc1cc(-c2cnn(C3CC3)c2)nc(C(C)(F)F)n1` [Example 304, N-(4-((6-(1-cyclopropyl-1H-pyrazol-4-yl)-2-(1,1-difluoroethyl)pyrimidin-4-yl)amino)-5-ethoxypyridin-2-yl)acetamide], the half-inhibitory concentration (IC50) in assay [1] (IL-6 stimulation) was at least 1000 nM; in assay [2] (setting [5]), at most 10 nM; in assay [3], at most 10 nM; in assay [4] (IL-3 stimulation), at least 1000 nM.
Consider `CCOc1cnc(NC(C)=O)cc1Nc1cc(-c2cnn(C(C)C)c2)nc(C(C)(F)F)n1` [Example 306, N-(4-((2-(1,1-difluoroethyl)-6-(1-isopropyl-1H-pyrazol-4-yl)pyrimidin-4-yl)amino)-5-ethoxypyridin-2-yl)acetamide], for which the IC50 in assay [1] (IL-6 stimulation) is at least 1000 nM; in assay [2] (setting [5]) it was at most 10 nM; in assay [3], at most 10 nM; in assay [4] (IL-3 stimulation), at least 1000 nM.
In the case of `CCOc1cnc(NC(C)=O)cc1Nc1cc(-c2cnn(CC)c2)nc(C(C)(F)F)n1` [Example 311, N-(4-((2-(1,1-difluoroethyl)-6-(1-ethyl-1H-pyrazol-4-yl)pyrimidin-4-yl)amino)-5-ethoxypyridin-2-yl)acetamide], the IC50 was at least 1000 nM in assay [1] (IL-6 stimulation), at most 10 nM in assay [2] (setting [5]), 10 to 100 nM in assay [3] and at least 1000 nM in assay [4] (IL-3 stimulation).
Take `[2H]C([2H])([2H])n1cc(-c2cc(Nc3cc(NC(C)=O)ncc3OCC)nc(C(C)(F)F)n2)cn1` [Example 314, N-(4-((2-(1,1-difluoroethyl)-6-(1-(methyl-d3)-1H-pyrazol-4-yl)pyrimidin-4-yl)amino)-5-ethoxypyridin-2-yl)acetamide]: the IC50 is at least 1000 nM in assay [1] (IL-6 stimulation), at most 10 nM in assay [2] (setting [5]), at most 10 nM in assay [3] and at least 1000 nM in assay [4] (IL-3 stimulation).
Regarding `[2H]C([2H])([2H])Oc1cnc(NC(C)=O)cc1Nc1cc(C(C)C)nc(C(C)(F)F)n1` [Example 315, N-(4-((2-(1,1-difluoroethyl)-6-isopropylpyrimidin-4-yl)amino)-5-(methoxy-d3)pyridin-2-yl)acetamide], the IC50 is at least 1000 nM in assay [1] (IL-6 stimulation), at most 10 nM in assay [2] (setting [5]), 10 to 100 nM in assay [3] and at least 1000 nM in assay [4] (IL-3 stimulation).
On to `CC(=O)Nc1cc(Nc2cc(C)nc(C(C)(F)F)n2)c(OCC[C@@H](C)F)cn1` [Example 336, (R)-N-(4-((2-(1,1-difluoroethyl)-6-methylpyrimidin-4-yl)amino)-5-(3-fluorobutoxy)pyridin-2-yl)acetamide], for which the IC50 is at least 1000 nM in assay [1] (IL-6 stimulation), at most 10 nM in assay [2] (setting [5]), 10 to 100 nM in assay [3] and at least 1000 nM in assay [4] (IL-3 stimulation).
`CO[C@H]1C[C@H](Oc2cnc(NC(C)=O)cc2Nc2cc(OC3CC3)nc(C(C)(F)F)n2)C1` [Example 350, N-(4-((6-cyclopropoxy-2-(1,1-difluoroethyl)pyrimidin-4-yl)amino)-5-((1r,3r)-3-methoxycyclobutoxy)pyridin-2-yl)acetamide]: the IC50 in assay [1] (IL-6 stimulation) is at least 1000 nM; in assay [2] (setting [5]), at most 10 nM; in assay [3], 10 to 100 nM; in assay [4] (IL-3 stimulation), at least 1000 nM.
Take `CO[C@H]1C[C@@H](Oc2cnc(NC(C)=O)cc2Nc2cc(OC3CC3)nc(C(C)(F)F)n2)C1` [Example 351, N-(4-((6-cyclopropoxy-2-(1,1-difluoroethyl)pyrimidin-4-yl)amino)-5-((1s,3s)-3-methoxycyclobutoxy)pyridin-2-yl)acetamide]: the IC50 was at least 1000 nM in assay [1] (IL-6 stimulation), at most 10 nM in assay [2] (setting [5]), at most 10 nM in assay [3] and at least 1000 nM in assay [4] (IL-3 stimulation).
With `CC(=O)Nc1cc(Nc2cc(OC3CC3)nc(C(C)(F)F)n2)c(O[C@H]2C[C@@H](F)C2)cn1` [Example 353, N-(4-((6-cyclopropoxy-2-(1,1-difluoroethyl)pyrimidin-4-yl)amino)-5-((1s,3s)-3-fluorocyclobutoxy)pyridin-2-yl)acetamide], the IC50 is at least 1000 nM in assay [1] (IL-6 stimulation), at most 10 nM in assay [2] (setting [5]), at most 10 nM in assay [3] and at least 1000 nM in assay [4] (IL-3 stimulation).
Consider `CCOc1cnc(NC(=O)OC)cc1Nc1cc(C)nc(C(C)(F)F)n1` [Example 360, methyl (4-((2-(1,1-difluoroethyl)-6-methylpyrimidin-4-yl)amino)-5-ethoxypyridin-2-yl)carbamate], for which the IC50 was at least 1000 nM in assay [1] (IL-6 stimulation), at most 10 nM in assay [2] (setting [5]), 10 to 100 nM in assay [3] and at least 1000 nM in assay [4] (IL-3 stimulation).
Regarding `[2H]C([2H])([2H])C([2H])([2H])Oc1cnc(NC(C)=O)cc1Nc1cc(C(C)C)nc(C(C)(F)F)n1` [Example 362, N-(4-((2-(1,1-difluoroethyl)-6-isopropylpyrimidin-4-yl)amino)-5-(ethoxy-d5)pyridin-2-yl)acetamide], the IC50 in assay [1] (IL-6 stimulation) was at least 1000 nM; in assay [2] (setting [5]) it was at most 10 nM; in assay [3], 10 to 100 nM; in assay [4] (IL-3 stimulation), at least 1000 nM.
As for `[2H]C([2H])(C)Oc1cnc(NC(C)=O)cc1Nc1cc(C(C)C)nc(C(C)(F)F)n1` [Example 364, N-(4-((2-(1,1-difluoroethyl)-6-isopropylpyrimidin-4-yl)amino)-5-(ethoxy-1,1-d2)pyridin-2-yl)acetamide], the half-inhibitory concentration (IC50) in assay [1] (IL-6 stimulation) was at least 1000 nM; in assay [2] (setting [5]), at most 10 nM; in assay [3], 10 to 100 nM; in assay [4] (IL-3 stimulation), at least 1000 nM.
In the case of `COCCOc1cnc(NC(C)=O)cc1Nc1cc(C)nc(C(C)(C)F)n1` [Example 406, N-(4-((2-(2-fluoropropan-2-yl)-6-methylpyrimidin-4-yl)amino)-5-(2-methoxyethoxy)pyridin-2-yl)acetamide], the IC50 in assay [1] (IL-6 stimulated) was at least 1000 nM; in assay [2] (setting [6]), at most 10 nM; in assay [3], at most 10 nM; in assay [4] (IL-3 stimulated), at least 1000 nM.
With `CC(=O)Nc1cc(Nc2cc(C)nc(C(C)(F)F)n2)c(OCC2COC(C)(C)CO2)cn1` (stereo not shown) [Example 430, N-(4-((2-(1,1-difluoroethyl)-6-methylpyrimidin-4-yl)amino)-5-((5,5-dimethyl-1,4-dioxan-2-yl)methoxy)pyridin-2-yl)acetamide], the half-maximal inhibitory concentration (IC50) in assay [1] (IL-6 stimulated) is at least 1000 nM; in assay [2] (setting [6]) it was at most 10 nM; in assay [3], 10 to 100 nM; in assay [4] (IL-3 stimulated), at least 1000 nM.
